According to patent US9168212B2, “Composition for eyelash growth” (SK CHEMICALS CO., LTD., priority 2011, dated 2015):

Key:
[1] = tested on: eyelashes; assay: Short-term in vivo evaluation related to eyelash growth (one week administration); set-up: species or system mouse
Experimental: (§1) Analysis was conducted immediately after the eyelashes were collected. Using a high-performance microscope with computer-assisted eyelid thickness focus fixation and an image analysis software capable of measuring the number, thickness and length of eyelashes, the eyelashes were measured for the exact number, thickness and length thereof. Numeric data obtained by this method was averaged, and comparative analysis was conducted using prism statistical software.

[2] = tested on: eyelashes; assay: In vivo evaluation related to eyelash growth (two weeks local administration); set-up: species or system mouse
Experimental: as §1

[3] = female mouse, 2 μl applied to the eyelashes once a day for one week, n is 6 for each group
[4] = female mouse, 2 μl applied to the eyelashes once a day for two weeks, n is 8 for each group

CCNC(=O)CCC/C=C\C[C@@H]1[C@@H](/C=C/[C@@H](O)CCc2ccccc2)[C@H](O)C[C@@H]1O [bimatoprost]
number of eyelashes [1, 3]: 37.8 eyelashes | number of eyelashes having a length of 1000 μm or more [1, 3]: 12.3 eyelashes | number of eyelashes having a thickness of 15 μm or more [1, 3]: 8.7 eyelashes | statistical significance of increase in number, thickness and length of eyelashes compared to the control group ([1]; one week administration, t-test): statistically significant increase in only one item of eyelash thickness | statistical significance of increase in number, thickness and length of eyelashes compared to the control group ([2]; administered for two weeks, t-test): statistically significant increase in only two items of number and thickness of eyelashes | number of eyelashes [2, 4]: 39.0 eyelashes | number of eyelashes having a length of 1000 μm or more [2, 4]: 9.5 eyelashes | number of eyelashes having a thickness of 15 μm or more [2, 4]: 9.5 eyelashes
